Patent US10550105B2 (Ribon Therapeutics Inc., priority 2018, dated 2020)

biological target: PARP7 (Homo sapiens (Human), UniProt Q7Z3E1); experiment: Enzymatic assay for inhibition of PARP7: TR-FRET displacement of biotinylated Probe A from the TIPARP active site; type: binding; conditions: Table A-1
Summary of the method: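 Titrated compounds compete with the biotinylated probe; after an additional 30 min incubation at 25° C, time-delayed fluorescence (90 μs) is measured. Inhibition curves use a Hill coefficient that normally floats but may be held at 1.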

Sequence of PARP7 (Q7Z3E1 whole entry): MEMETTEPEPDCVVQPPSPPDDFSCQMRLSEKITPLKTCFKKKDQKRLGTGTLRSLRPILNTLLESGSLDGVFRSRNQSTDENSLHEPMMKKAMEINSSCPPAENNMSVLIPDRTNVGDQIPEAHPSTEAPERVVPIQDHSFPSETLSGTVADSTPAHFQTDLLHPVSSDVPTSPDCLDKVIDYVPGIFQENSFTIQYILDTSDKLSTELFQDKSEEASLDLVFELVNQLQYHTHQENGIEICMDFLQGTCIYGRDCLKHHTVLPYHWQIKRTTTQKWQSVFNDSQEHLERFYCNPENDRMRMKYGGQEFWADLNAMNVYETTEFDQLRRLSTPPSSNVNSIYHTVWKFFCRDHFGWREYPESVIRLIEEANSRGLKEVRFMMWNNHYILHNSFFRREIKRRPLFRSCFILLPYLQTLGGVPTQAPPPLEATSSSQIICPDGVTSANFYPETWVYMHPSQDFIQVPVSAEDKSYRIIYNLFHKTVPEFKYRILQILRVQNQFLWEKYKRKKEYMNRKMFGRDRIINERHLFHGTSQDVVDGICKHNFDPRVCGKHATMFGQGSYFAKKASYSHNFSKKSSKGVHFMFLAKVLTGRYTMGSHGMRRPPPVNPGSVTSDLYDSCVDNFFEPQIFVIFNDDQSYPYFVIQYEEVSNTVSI

`C[C@@H](CN(C)CCC(=O)N1CCN(c2ccc(C#N)cn2)CC1)Oc1cn[nH]c(=O)c1C(F)(F)F` [Example 645, (S)-6-(4-(3-(Methyl(2-((6-oxo-5-(trifluoromethyl)-1,6-dihydropyridazin-4-yl)oxy)propyl)amino)propanoyl)piperazin-1-yl)nicotinonitrile] and `N#Cc1ccc(N2CCN(C(=O)CCO[C@@H]3COC[C@@H]3Oc3cn[nH]c(=O)c3C(F)(F)F)CC2)nc1` [Example 531, 6-[4-(3-[[(3R,4S)-4-[[6-Oxo-5-(trifluoromethyl)-1,6-dihydropyridazin-4-yl]oxy]oxolan-3-yl]oxy]propanoyl)piperazin-1-yl]pyridine-3-carbonitrile] cannot be ordered by IC50: less than 0.1 µM for the first, less than 0.1 µM for the second.

Compared with `N#Cc1ccc(N2CCN(C(=O)CCNC[C@@H]3CCCN3c3cn[nH]c(=O)c3C(F)(F)F)CC2)nc1` [Example 135, 6-[4-[3-([[(2S)-1-[6-oxo-5-(trifluoromethyl)-1,6-dihydropyridazin-4-yl]pyrrolidin-2-yl]methyl]amino)propanoyl]piperazin-1-yl]pyridine-3-carbonitrile], `N#Cc1ccc(N2CCN(C(=O)CCNC(=O)C[C@@H]3CCCN3c3cn[nH]c(=O)c3C(F)(F)F)CC2)nc1` [Example 132, N-[3-[4-(5-cyanopyridin-2-yl)piperazin-1-yl]-3-oxopropyl]-2-[(2S)-1-[6-oxo-5-(trifluoromethyl)-1,6-dihydropyridazin-4-yl]pyrrolidin-2-yl]acetamide] is higher in IC50: less than 0.1 µM for the first, 0.1 to 1 µM for the second. The first is the more potent here.

`CC(=O)N1CCC(Oc2cc(F)c3c(c2)CN(c2cn[nH]c(=O)c2C(F)(F)F)C3)CC1` [Example 4, 5-[6-[(1-acetylpiperidin-4-yl)oxy]-4-fluoro-2,3-dihydro-1H-isoindol-2-yl]-4-(trifluoromethyl)-2,3-dihydropyridazin-3-one] and `O=c1[nH]ncc(N2Cc3ccc(OC4CCNC4)cc3C2)c1C(F)(F)F` (stereo not shown) [Example 218, 5-(5-(Pyrrolidin-3-yloxy)isoindolin-2-yl)-4-(trifluoromethyl)pyridazin-3(2H)-one] cannot be ordered by IC50: less than 0.1 µM for the first, less than 0.1 µM for the second.

First: COC[C@H](COCCC(=O)N1CCN(c2ncc(C(F)(F)F)cn2)CC1)Oc1cn[nH]c(=O)c1C(F)(F)F (single isomer, unassigned) [Example 570 Isomer B]
Second: O=C(CCOC[C@H](Nc1cn[nH]c(=O)c1C(F)(F)F)[C@H]1CCOC1)N1CCN(c2ncc(C(F)(F)F)cn2)CC1 (single isomer, unassigned) [Example 614 Isomer B]
The IC50 of the first is higher: 0.1 to 1 µM for the first, less than 0.1 µM for the second.

First: C[C@H](OCCC(=O)N1CCN(c2ccc(C#N)cn2)CC1)[C@@H]1CCCN1c1cn[nH]c(=O)c1C(F)(F)F [Example 140B, 6-(4-[3-[(1S)-1-[(2S)-1-[6-oxo-5-(trifluoromethyl)-1,6-dihydropyridazin-4-yl]pyrrolidin-2-yl]ethoxy]propanoyl]piperazin-1-yl)pyridine-3-carbonitrile]
Second: C[C@@H](COC[C@@H]1CCCN1c1cn[nH]c(=O)c1C(F)(F)F)C(=O)N1CCN(c2ccc(C#N)cn2)CC1 (single isomer, unassigned) [Example 94 Isomer B]
The IC50 of the first is higher: 0.1 to 1 µM for the first, less than 0.1 µM for the second.

First: O=c1[nH]ncc(N2Cc3ccc(OC4CCNCC4)nc3C2)c1C(F)(F)F [Example 324, 5-(2-(Piperidin-4-yloxy)-5,7-dihydro-6H-pyrrolo[3,4-b]pyridin-6-yl)-4-(trifluoromethyl)pyridazin-3(2H)-one]
Second: O=c1[nH]ncc(N2Cc3ccc(Cl)nc3C2)c1C(F)(F)F [Example 304, 5-(2-Chloro-5,7-dihydro-6H-pyrrolo[3,4-b]pyridin-6-yl)-4-(trifluoromethyl)pyridazin-3(2H)-one]
The IC50 of the first is higher: 0.1 to 1 µM for the first, less than 0.1 µM for the second.

`CS(=O)(=O)c1ccc(N2CCN(C(=O)CCOC[C@@H]3CCCN3c3cn[nH]c(=O)c3C(F)(F)F)CC2)nc1` [Example 483, (S)-5-(2-((3-(4-(5-(Methylsulfonyl)pyridin-2-yl)piperazin-1-yl)-3-oxopropoxy)methyl)pyrrolidin-1-yl)-4-(trifluoromethyl)pyridazin-3(2H)-one] and `N#Cc1ccc(N2CCN(C(=O)CNCC[C@@H]3CCCN3c3cn[nH]c(=O)c3C(F)(F)F)CC2)nc1` [Example 89, 6-[4-[2-([2-[(2S)-1-[6-oxo-5-(trifluoromethyl)-1,6-dihydropyridazin-4-yl]pyrrolidin-2-yl]ethyl]amino)acetyl]piperazin-1-yl]pyridine-3-carbonitrile] cannot be ordered by IC50: less than 0.1 µM for the first, less than 0.1 µM for the second.

`N#Cc1ccc(N2CCN(C(=O)CCNC[C@H]3c4ccccc4CN3c3cn[nH]c(=O)c3C(F)(F)F)CC2)nc1` [Example 146B, 6-[4-[3-([[(1R)-2-[6-oxo-5-(trifluoromethyl)-1,6-dihydropyridazin-4-yl]-2,3-dihydro-1H-isoindo1-1-yl]methyl]amino)propanoyl]piperazin-1-yl]pyridine-3-carbonitrile] and `N#Cc1ccc(N2CCN(C(=O)CCCOCc3cccc4c3CN(c3cn[nH]c(=O)c3C(F)(F)F)C4)CC2)nc1` [Example 496, 6-(4-(4-((2-(6-Oxo-5-(trifluoromethyl)-1,6-dihydropyridazin-4-yl)isoindolin-4-yl)methoxy)butanoyl)piperazin-1-yl)nicotinonitrile] cannot be ordered by IC50: less than 0.1 µM for the first, less than 0.1 µM for the second.

Going from `N#Cc1cnc(N2CCN(C(=O)c3cc(OC[C@H]4c5ccccc5CN4c4cn[nH]c(=O)c4C(F)(F)F)ccn3)CC2)nc1` (single isomer, unassigned) [Example 64 Isomer A] to `O=C(c1cccc(OCC2c3ccccc3CN2c2cn[nH]c(=O)c2C(F)(F)F)c1)N1CCn2c(nnc2C(F)(F)F)C1` (stereo not shown) [Example 367, 4-(Trifluoromethyl)-5-(1-((3-(3-(trifluoromethyl)-5,6,7,8-tetrahydro-[1,2,4]triazolo[4,3-a]pyrazine-7-carbonyl)phenoxy)methyl)isoindolin-2-yl)pyridazin-3(2H)-one], the IC50 falls from no less than 1 µM to less than 0.1 µM. The second is the more potent here.

`O=c1[nH]ncc(N2Cc3cccc(OCCN4CCNCC4)c3C2)c1Cl` [Example 220, 4-Chloro-5-(4-(2-(piperazin-1-yl)ethoxy)isoindolin-2-yl)pyridazin-3(2H)-one] and `O=c1[nH]ncc(N2Cc3cccc(N4CCNCC4)c3C2)c1C(F)(F)F` [Example 295, 5-(4-(Piperazin-1-yl)isoindolin-2-yl)-4-(trifluoromethyl)pyridazin-3(2H)-one] fall in the same range of IC50: 0.1 to 1 µM for the first, 0.1 to 1 µM for the second.

First: O=c1[nH]ncc(N2Cc3cccc(OC[C@H]4CCCO4)c3C2)c1C(F)(F)F [Example 223, (R)-5-(4-((Tetrahydrofuran-2-yl)methoxy)isoindolin-2-yl)-4-(trifluoromethyl)pyridazin-3(2H)-one]
Second: CNCc1cccc2c1CN(c1cn[nH]c(=O)c1C(F)(F)F)C2 [Example 262, 5-(4-((Methylamino)methyl)isoindolin-2-yl)-4-(trifluoromethyl)pyridazin-3(2H)-one]
The IC50 of the first is lower: less than 0.1 µM for the first, no less than 1 µM for the second.

`O=c1[nH]ncc(N2C[C@@H]3CCCN[C@@H]3C2)c1C(F)(F)F` [Example 498, 5-((4aS,7aS)-Octahydro-6H-pyrrolo[3,4-b]pyridin-6-yl)-4-(trifluoromethyl)pyridazin-3(2H)-one] and `O=c1[nH]ncc(N2Cc3cccc(N4CCOCC4)c3C2)c1C(F)(F)F` [Example 253, 5-(4-Morpholinoisoindolin-2-yl)-4-(trifluoromethyl)pyridazin-3(2H)-one] cannot be ordered by IC50: no less than 1 µM for the first, 0.1 to 1 µM for the second.

`N#Cc1ccc(N2CCN(C(=O)CCOC[C@@H]3CCCN3c3cn[nH]c(=O)c3Cl)CC2)nc1` [Example 468, (S)-6-(4-(3-((1-(5-Chloro-6-oxo-1,6-dihydropyridazin-4-yl)pyrrolidin-2-yl)methoxy)propanoyl)piperazin-1-yl)nicotinonitrile] and `N#Cc1ccc(N2CCN(C(=O)C/C=C\OC[C@@H]3CCCN3c3cn[nH]c(=O)c3C(F)(F)F)CC2)nc1` (single isomer, unassigned) [Example 96 Isomer A] cannot be ordered by IC50: less than 0.1 µM for the first, less than 0.1 µM for the second.

`O=c1[nH]ncc(N2Cc3cccc(OC4CCN(C(c5ccccc5)c5ccccc5)CC4)c3C2)c1C(F)(F)F` [Example 27, 5-(4-[[1-(diphenylmethyl)piperidin-4-yl]oxy]-2,3-dihydro-1H-isoindol-2-yl)-4-(trifluoromethyl)-2,3-dihydropyridazin-3-one] and `CCC1c2ccccc2CN1c1cn[nH]c(=O)c1C(F)(F)F` (stereo not shown) [Example 310, 5-(1-Ethylisoindolin-2-yl)-4-(trifluoromethyl)pyridazin-3(2H)-one] cannot be ordered by IC50: 0.1 to 1 µM for the first, no less than 1 µM for the second.

`O=C(CCOCCOc1cn[nH]c(=O)c1Br)N1CCN(c2ncc(C(F)(F)F)cn2)CC1` [Example 548, 4-Bromo-5-[2-(3-oxo-3-[4-[5-(trifluoromethyl)pyrimidin-2-yl]piperazin-1-yl]propoxy)ethoxy]-2,3-dihydropyridazin-3-one] and `C[C@@H](COCCC(=O)N1CCN(c2cnc(C#N)cn2)CC1)Nc1cn[nH]c(=O)c1C(F)(F)F` [Example 683, (S)-5-(4-(3-(2-((6-Oxo-5-(trifluoromethyl)-1,6-dihydropyridazin-4-yl)amino)propoxy)propanoyl)piperazin-1-yl)pyrazine-2-carbonitrile] cannot be ordered by IC50: less than 0.1 µM for the first, less than 0.1 µM for the second.

Compared with `N#Cc1ccc(N2CCN(C(=O)[C@H]3CCC[C@H](OC[C@@H]4CCCN4c4cn[nH]c(=O)c4C(F)(F)F)C3)CC2)nc1` (single isomer, unassigned) [Example 57 Isomer A], `N#Cc1ccc(NC2CN(C(=O)CCOC[C@@H]3CCCN3c3cn[nH]c(=O)c3C(F)(F)F)C2)nc1` [Example 107, 6-[[1-(3-[[(2S)-1-[6-oxo-5-(trifluoromethyl)-1,6-dihydropyridazin-4-yl]pyrrolidin-2-yl]methoxy]propanoyl)azetidin-3-yl]amino]pyridine-3-carbonitrile] is lower in IC50: 0.1 to 1 µM for the first, less than 0.1 µM for the second.

Compared with `CC(=O)N1CCC(COc2cc3c(cc2F)CN(c2cn[nH]c(=O)c2C(C)C)C3)CC1` [Example 489, 5-(5-((1-Acetylpiperidin-4-yl)methoxy)-6-fluoroisoindolin-2-yl)-4-isopropylpyridazin-3(2H)-one], `C[C@@H](COCCC(=O)N1CCN(c2ccc(C(F)(F)F)nc2)CC1)Nc1cn[nH]c(=O)c1C(F)(F)F` [Example 685, (S)-5-((1-(3-Oxo-3-(4-(6-(trifluoromethyl)pyridin-3-yl)piperazin-1-yl)propoxy)propan-2-yl)amino)-4-(trifluoromethyl)pyridazin-3(2H)-one] is lower in IC50: no less than 1 µM for the first, less than 0.1 µM for the second. The second is the more potent here.
